Measurements reported in patent publication US7618975B2, “4-arylamino-quinazolines and analogs as activators of caspases and inducers of apoptosis and the use thereof” (Myriad Pharmaceuticals, Inc., priority 2003, dated 2009).

Test system: T-47D cells
Experiment: Caspase cascade activation (N-(Ac-DEVD)-N′-ethoxycarbonyl-R110 fluorogenic substrate) in T-47D cells; as to Caspase activity Ratio T-47D (24 hr): test concentration or dose not given here; as to Caspase activity Ratio T-47D (48 hr): test concentration or dose not given here
Format: cell-based, Human
Conditions: T-47D; for Caspase activity Ratio T-47D (24 hr) / Caspase activity Ratio T-47D (48 hr): ratio of net RFU to control; for Ratio T-47D (48 hr): benzohydrazide analogs table

SMILES	Caspase activity Ratio T-47D (24 hr)	Caspase activity Ratio T-47D (48 hr)	Ratio T-47D (48 hr)
COc1ccc(Nc2nc(C)nc3ccccc23)cc1F [Example 79, (3-Fluoro-4-methoxy-phenyl)-(2-methyl-quinazolin-4-yl)-amine]	0.7		
COc1cccc(N(C)c2nc(Cl)nc3ccccc23)c1OC [Example 39, (2-Chloro-quinazolin-4-yl)-(2,3-dimethoxy-phenyl)-methyl-amine]	4.5		
Cc1nc(N(C)c2ccc(C(=O)ON3C(=O)CCC3=O)cc2)c2ccccc2n1 [Example 119, Succinimidyl 4-(N-Methyl-N-(2-methylquinazolin-4-yl)amino)benzoic Acid Ester]	11.8		
COc1ccc(N(C)c2nc(Cl)nc3cc(C)ccc23)cc1 [Example 57, (2-Chloro-7-methyl-quinazolin-4-yl)-(4-methoxy-phenyl)-methyl-amine]		6.2	
COc1ccc(N(c2nc(C)nc3ccccc23)C(F)F)cc1 [Example 139, Difluoromethyl-(4-methoxy-phenyl)-(2-methyl-quinazolin-4-yl)-amine]	5.6		
Cc1nc(N(C)c2ccc(O)cc2)c2ccccc2n1 [Example 93, (4-Hydroxy-phenyl)-(2-methyl-quinazolin-4-yl)-methyl-amine]	11.3		
[2H]c1c([2H])c(N(C)c2nc(C)nc3ccccc23)c([2H])c([2H])c1OC [Example 108]	4.8		
COc1ccc(N(C)c2nc(CO)nc3ccccc23)cc1 [Example 76]	5.6	14.1	
COc1ccc(N(C)c2nc(CCl)nc3ccccc23)cc1 [Example 73, (2-Chloromethyl-quinazolin-4-yl)-(4-methoxy-phenyl)-methyl-amine]	6.2	5.7	
CSc1nc(N(C)NC(=O)c2ccc(Cl)cc2)c2ccccc2n1 [4-chloro-N′-methyl-N′-(2-(methylthio)quinazolin-4-yl)benzohydrazide]			14.4
COc1ccc(N(C)c2nc(NCCN3CCOCC3)nc3cc(OC)c(OC)cc23)cc1 [Example 23, 6,7-Dimethoxy-N^4-(4-methoxy-phenyl)-N^4-methyl-N^2-(2-morpholin-4-yl-ethyl)-quinazoline-2,4-diamine]	1.0	1.0	
CNc1nc(N(C)c2ccc(OC)nc2)c2ccccc2n1 [Example 129, (2-Methylamino-quinazolin-4-yl)-(6-methoxy-pyridin-3-yl)-methyl-amine]	10		
COc1ccc(N(C)c2nc(NCCO)nc3cc(OC)c(OC)cc23)cc1 [Example 50, N^2-(2-Hydroxyethyl)-N^4-(4-methoxy-phenyl)-N^4-methyl-6,7-dimethoxyquinazoline-2,4-diamine]		1.0	
COc1ccc(N(C)c2nc(NC/C=C(\C)CCC=C(C)C)nc3cc(OC)c(OC)cc23)cc1 [Example 24, 6,7-Dimethoxy-N^2-(3,7-dimethyl-octa-2,6-dienyl)-N^4-(4-methoxy-phenyl)-N^4-methyl-quinazoline-2,4-diamine]	1.0	2.4	
COc1ccc(N(C)c2nc(SC)nc3ccccc23)cc1 [Example 120, (2-Methylthio-quinazolin-4-yl)-(4-methoxy-phenyl)-methyl-amine]	5.2		
COc1ccc(N(C)c2nc(C)nc3ccc(N)cc23)cc1 [Example 110, (6-Amino-2-methyl-quinazolin-4-yl)-(4-methoxy-phenyl)-methyl-amine]	8.8		

SMILES	Caspase activity Ratio T-47D (24 hr)	Caspase activity Ratio T-47D (48 hr)	Ratio T-47D (48 hr)
Cc1nc(N(C)c2ccc(F)cc2)c2ccccc2n1 [Example 124, (4-Fluoro-phenyl)-(2-methyl-quinazolin-4-yl)-methyl-amine]	5.2		
CCOc1ccc(Nc2nc(Cl)nc3ccccc23)cc1 [Example 94, (2-Chloro-quinazolin-4-yl)-(4-ethoxy-phenyl)-amine]		1.0	
COc1cc(OC)c(Nc2nc(C)nc3ccccc23)c(OC)c1 [Example 82, (2-Methyl-quinazolin-4-yl)-(2,4,6-trimethoxy-phenyl)-amine]	1.0		
Cc1nc(N(C)c2ccc(N)cc2)c2ccccc2n1 [Example 101, (4-Amino-phenyl)-(2-methyl-quinazolin-4-yl)-methyl-amine]	9.5		
COc1ccc(N(C)c2nc(N)nc3ccccc23)cn1 [Example 49, N^4-(6-methoxypyridin-3-yl)-N^4-methyl-quinazoline-2,4-diamine]	7.5	13.4	
COc1ccc(N(C)c2nc(Cl)nc3ccc(Cl)cc23)cc1 [Example 60, (2,6-Dichloro-quinazolin-4-yl)-(4-methoxy-phenyl)-methyl-amine]		6.5	
COc1ccc(N(C)c2nc(N=[N+]=[N-])nc3ccccc23)cc1 [Example 121, (2-Azido-quinazolin-4-yl)-(4-methoxy-phenyl)-methyl-amine]	8.8		
COc1ccc(N(C)c2nc(C(=O)O)nc3ccccc23)cc1 [Example 118, 4-(N-(4-Methoxy-phenyl)-N-methylamino)quinazoline-2-carboxylic Acid]	1.0		
COc1cc2nc(Cl)nc(N(C)c3ccc(C)cc3)c2cc1OC [Example 22, (2-Chloro-6,7-dimethoxyquinazolin-4-yl)-(4-methyl-phenyl)-methyl-amine]	1.0	1.0	
COc1ccc(N(C)c2nc(Cl)nc3ccccc23)cc1OC [Example 68, (2-Chloro-quinazolin-4-yl)-(3,4-dimethoxy-phenyl)-methyl-amine]		13.1	
CSc1nc(N(C)NC(=O)c2ccc(F)cc2)c2ccccc2n1 [4-fluoro-N′-methyl-N′-(2-(methylthio)quinazolin-4-yl)benzohydrazide]			13.8
COc1ccc(Nc2nc(Cl)nc3ccccc23)cn1 [Example 28, (2-Chloro-quinazolin-4-yl)-(6-methoxy-pyridin-3-yl)-amine]	1.0	1.0	
CCOc1ccc(N(C)c2nc(C)nc3ccccc23)cc1 [Example 107, (4-Ethoxy-phenyl)-(2-methyl-quinazolin-4-yl)-methyl-amine]	5.2		
CCOC(=O)c1nc(N(C)c2ccc(OC)cc2)c2ccccc2n1 [Example 117, Ethyl 4-(N-(4-Methoxy-phenyl)-N-methylamino)quinazoline-2-carboxylate]	7.4		
COc1ccc(N(C)c2nc(CF)nc3ccccc23)cc1 [Example 55, (2-Fluoromethyl-quinazolin-4-yl)-(4-methoxy-phenyl)-methyl-amine]		9.0	
